In assay [1] the target is Transthyretin (Homo sapiens) (UniProt P02766).
Description: Relative binding affinity to prealbumin was determined from the competition binding assays and is expressed relative to L-T4
The target is the same in assay [2]. The experiment in a line: Concentration at which 50% total binding to prealbumin protein.

Each structure is given as a SMILES string. Bounds are passed on as bounds.

The text below walks through data of ChEMBL document CHEMBL1123169, “Structurally specific binding of halogenated biphenyls to thyroxine transport protein” (J Med Chem, 1986).
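Throughout, for Binding affinity: competition binding to prealbumin, with affinity given relative to L-T4 as the reference ligand.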

The compound `Oc1c(-c2cc(Cl)c(Cl)c(Cl)c2)cc(Cl)c(Cl)c1Cl` registered a Binding affinity in assay [1] of 208.
As to `Oc1c(Cl)cc(-c2ccccc2)cc1Cl`, the Binding affinity in assay [1] was 851.
As to `Clc1cc(Cl)cc(-c2cc(Cl)cc(Cl)c2)c1`, in assay [1], the Binding affinity is 411.
With `Oc1ccc(-c2cc(Cl)c(Cl)c(Cl)c2Cl)cc1`, in assay [1], the Binding affinity is 286.
`O=C(O)c1cc(I)c(-c2cc(I)c(O)c(I)c2)c(I)c1`: the Concentration in assay [2] came to 0.87 nM. Also, the Binding affinity in assay [1] was 1150.
With `NC(Cc1cc(I)c(Oc2cc(I)c(O)c(I)c2)c(I)c1)C(=O)O` (configuration not stated), the Binding affinity in assay [1] was 63.
In turn, `NC(Cc1cc(I)c(-c2cc(I)c(O)c(I)c2)c(I)c1)C(=O)O` (racemic) came in with a Concentration in assay [2] of 3 nM. For the same compound, the Binding affinity in assay [1] was found to be 331.
Regarding `Oc1ccc(-c2c(Cl)cc(Cl)cc2Cl)cc1`, the Binding affinity in assay [1] was 46.
Regarding `Clc1cc(-c2cc(Cl)c(Cl)c(Cl)c2)cc(Cl)c1Cl`, the Binding affinity in assay [1] amounted to 313.
For `N[C@@H](Cc1cc(I)c(Oc2cc(I)c(O)c(I)c2)c(I)c1)C(=O)O`, the Binding affinity in assay [1] was 100.
Consider `NC(Cc1ccc(Oc2cc(I)c(O)c(I)c2)c(I)c1)C(=O)O` (configuration not stated), for which, in assay [1], the Binding affinity came to 23.
As to `Oc1ccc(-c2c(Cl)c(Cl)c(O)c(Cl)c2Cl)cc1`, in assay [2], the Concentration amounted to 2.5 nM. This compound returned a Binding affinity in assay [1] of 398.
In turn, `Oc1c(Cl)cc(Cl)cc1-c1ccccc1` registered a Binding affinity in assay [1] of 28.
Compound `c1ccc(-c2ccccc2)cc1` came in with a Binding affinity in assay [1] of less than 5.
The compound `N[C@@H](Cc1cc(I)c(Oc2ccc(O)c(I)c2)c(I)c1)C(=O)O` gave a Binding affinity in assay [1] of 2.
Still for that read-out and setting: to `Oc1c(Cl)cc(-c2ccc(Cl)cc2)cc1Cl` belongs 501; to `Clc1cccc(Cl)c1-c1c(Cl)cccc1Cl`, less than 5.
The compound `Oc1c(Cl)cc(-c2cc(Cl)c(O)c(Cl)c2)cc1Cl` came in with a Concentration in assay [2] of 1.5 nM. In addition, the Binding affinity in assay [1] was determined as 661.
